# Columns and labels:
# Assay type in all cases: in vivo
# [1] = tested on: Sweet Potato Whitefly (Bemisia tabaci, BEMITA); experiment: Bioassay 2: Sweet Potato Whitefly, spray on cotton seedlings at crawler emergence, nymphs counted 7-9 days after treatment
# In short: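 Cotton seedlings pruned to one true leaf were colonized by adult B. tabaci for 24 h egg-laying, then sprayed once >25% crawler emergence was underway; solutions 0.001% to 0.00000001% (w/v) in acetone/water with 0.025% Tween 20. Held ~25° C; live 2-3 instar nymphs counted 7-9 days later, Abbott-corrected % control.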
# [2] = tested on: Beet Armyworm (Spodoptera exigua, LAPHEG); experiment: Bioassay 6: Beet Armyworm, artificial lepidopteran diet, live larvae after 5 days; settings: BAW
# Protocol: (§1) where X=No. of live nymphs on solvent check and Y=No. of live nymphs on treated bean segments. In Table B5 the “Expected % Control” was calculated using the method described in Colby S. R., Weeds, 1967, 15, 20-22. Bioassay 6: Beet Armyworm (Spodoptera exigua, LAPHEG) (BAW), and Diamondback Moth (Plutella xylostella, PLUTMA) (DBM).
# Stock solutions were prepared with Formula One as well as for each of the active ingredients individually. Test solutions were prepared from the stock solutions. Test solutions were prepared containing Formula One, the individual active ingredients, and mixtures of Formula One with each of the active ingredients. […]
# (§2) The test solutions were tested against BAW and DBM using the following procedure: An artificial lepidopteran diet (Multispecies Lepidopteran Diet, Southland Products) was distributed in 128-cell bioassay trays (Frontier Agricultural Sciences™). […] After 5 days, the number of live larvae were recorded from each cell and percent control was measured using Abbott's correction formula (W. S. Abbott, J. Econ. Entomol. 18 (1925), pp. 265-267) as follows:
# (§3) where X=No. of live larvae on solvent check and Y=No. of live larvae on treated diet. In Table B6 the “Expected % Control” was calculated using the method described in Colby S. R., Weeds, 1967, 15, 20-22. […]
# [3] = tested on: Diamondback Moth (Plutella xylostella, PLUTMA); experiment: Bioassay 6: Diamondback Moth, artificial lepidopteran diet, live larvae after 5 days; settings: DBM; F1 alone 0.4 % w/v
# Protocol: as §1
# Stock solutions were prepared with Formula One as well as for each of the active ingredients individually. Test solutions were prepared from the stock solutions. Test solutions were prepared containing Formula One, the individual active ingredients, and mixtures of Formula One with each of the active ingredients. The test solution for Formula One was prepared by adding 500 μL of the stock solution to a 25 mL glass vial, then adding 500 μL of a 9:1 mixture of acetone: water. The individual active ingredients were prepared by adding 500 μL of stock solution to a 25 mL glass vial, then adding 500 μL of a 9:1 mixture of acetone: water. The test solutions containing mixtures of Formula One and the individual active ingredients were prepared by adding 500 μL of the active ingredient stock solution to a 25 mL glass vial, followed by 500 μL of the Formula One stock solution, creating a test solution containing 4000 ppm Formula One and 0.4% (w/v) of the active ingredient. Each test solution was serially diluted to create desired doses of test solutions (0.4% (w/v), 0.04% (w/v), 0.004% (w/v), 0.0004% (w/v), 0.00004% (w/v), and 0.000004% (w/v)). In test solutions containing mixtures of Formula One and the active ingredients, the active ingredients were diluted as described above, but the Concentration of Formula One was held constant (0.4% (w/v)). The highest dose test solution (0.4% (w/v)) was discarded, leaving 5 test solution concentrations used in the test.
# as §2, with “Sciences™). 50 μL of test solution was pipetted into a cell in the bioassay tray. (The test solution doses of 0.04% (w/v), 0.004% (w/v), 0.0004% (w/v), 0.00004% (w/v), and 0.000004% (w/v) translated to concentrations of 5, 0.5, 0.05, 0.005, and 0.0005 ug/cm^2 on the diet, respectively.) A reference treatment (solvent check) was treated with the diluent only.” for “Sciences™).”
# as §3
Compound,Average % Control AI ([1]; AI alone 1 (10-5) % w/v) [%],Average % Control AI ([1]; AI alone 0.1 (10-5) % w/v) [%],further results
Cc1c(COC(=O)[C@@H]2[C@H](/C=C(\Cl)C(F)(F)F)C2(C)C)cccc1-c1ccccc1 (racemic) [Bifenthrin],40,–,–
CC1(C)[C@H](C(=O)O[C@H](C#N)c2cccc(Oc3ccccc3)c2)[C@@H]1/C=C(\Cl)C(F)(F)F (racemic) [Lambda Cyhalothrin],27,–,–
C/C(=N\C#N)N(C)Cc1ccc(Cl)nc1 [Acetamiprid],29,–,–
"CCN(C(=O)CCS(C)(=O)=O)c1sc(-c2cccnc2)nc1Cl [Formula F1, N-(4-chloro-2-(pyridin-3-yl)thiazol-5-yl)-N-ethyl-3-(methylsulfonyl)propanamide]",–,–,Average % Control F1 ([2]; F1 alone 0.4 % w/v): 0%; Average % Control F1 [3]: 0%
Abamectin,–,16,"Average % Control AI ([2]; AI alone, Ratio F1:AI 100:1): 50%"
Emamectin Benzoate,5,0,–
